Legend:
[1] = molecular target: T1, HCV polymerase (NS5B570n-Con1) (Hepatitis C virus genotype 1b, UniProt Q9WMX2); test: HCV NS5B RNA polymerase activity assay (incorporation of radiolabeled nucleotide into RNA); format: biochemical, HCV Con1 strain
T1 construct: contains a 21 amino acid deletion at the C-terminus relative to the full-length HCV polymerase; 6-histidine (N); made in house; host or cells: E. coli BL21(DE) pLysS, plasmid pET17b
Procedure: The enzymatic activity of HCV polymerase (NS5B570n-Con1) was measured as the incorporation of radiolabeled nucleotide monophosphates into acid insoluble RNA products. Unincorporated radiolabeled substrate was removed by filtration and scintillant was added to the washed and dried filter plate containing radiolabeled RNA product. The amount of RNA product generated by NS5B570-Con1 at the end of the reaction was directly proportional to the amount of light emitted by the scintillant.
The N-terminal 6-histidine tagged HCV polymerase, derived from HCV Con1 strain, genotype 1b (NS5B570n-Con1) contains a 21 amino acid deletion at the C-terminus relative to the full-length HCV polymerase and was purified from E. coli strain BL21(DE) pLysS. The construct, containing the coding sequence of HCV NS5B Con1 (GenBank accession number AJ242654) was inserted into the plasmid construct pET17b, downstream of a T7 promoter expression cassette and transformed into E. coli. A single colony was grown overnight as a starter culture and later used inoculate 10 L of LB media supplemented with 100 μg/mL ampicillin at 37° C. Protein expression was induced by the addition of 0.25 mM isopropyl-β-D-thiogalactopyranoside (IPTG) when optical density at […] of the culture was between 0.6 and 0.8 and cells were harvested after 16 to 18 h at 30° C. NS5B570n-Con1 was purified to homogeneity using a three-step protocol including subsequent column chromatography on Ni-NTA, SP-Sepharose HP and Superdex 75 resins.
Each 50 μL enzymatic reaction contained 20 nM RNA template derived from the complementary sequence of the Internal Ribosome Entry Site (cIRES), 20 nM NS5B570n-Con1 enzyme, 0.5 μCi of tritiated UTP (Perkin Elmer catalog no. TRK-412; specific activity: 30 to 60 Ci/mmol; stock solution concentration from 7.5×10^−5 M to 20.6×10^−6 M), 1 μM each ATP, CTP, and GTP, 40 mM Tris-HCl pH 8.0, 40 mM NaCl, 4 mM DTT (dithiothreitol), 4 mM MgCl2, and 5 μL of compound serial diluted in DMSO. Reaction mixtures were assembled in 96-well filter plates (cat #MADVN0B, Millipore Co.) and incubated for 2 h at 30° C. Reactions were stopped by addition of 10% final (v/v) trichloroacetic acid and incubated for 40 min at 4° C. […]
The amount of light emitted from the scintillant was converted to counts per minute (CPM) on a Topcount® plate reader (Perkin-Elmer, Energy Range: Low, Efficiency Mode Normal, Count Time: 1 min, Background Subtract: none, Cross talk reduction: Off).
Data was analyzed in Excel® (Microsoft®) and ActivityBase® (Idbs®). […] All data was expressed as a percentage of the positive control. […]

in vitro = conditions: human
[2] = tested on: HCV replicon cells (2209-23), genotype 1b replicon in Huh7 cells; test: HCV replicon assay (Renilla luciferase reporter); format: cell-based, HCV genotype 1b; conditions: Hepatitis C virus, Huh-7, 72 h; 2209-23 cells, three days incubation, luciferase readout

| Compound | IC50 [1] | CC50 (in vitro) | IC50 [2] |
| --- | --- | --- | --- |
| COc1c(-c2ccc3cc(NS(C)(=O)=O)ccc3c2)cc(-n2ccc(=O)[nH]c2=O)c2c1C(C)(C)CO2 [Compound I-2, N-{6-[7-(2,4-Dioxo-3,4-dihydro-2H-pyrimidin-1-yl)-4-methoxy-3,3-dimethyl-2,3-dihydro-benzofuran-5-yl]-naphthalen-2-yl}-methanesulfonamide] | 0.6 nM | 12000 nM | 5.2 nM |
| CC1(C)COc2c(-c3ccc4cc(NS(C)(=O)=O)ccc4c3)cc(-n3ccc(=O)[nH]c3=O)cc21 [Compound I-4, N-{6-[5-(2,4-Dioxo-3,4-dihydro-2H-pyrimidin-1-yl)-3,3-dimethyl-2,3-dihydro-benzofuran-7-yl]-naphthalen-2-yl}-methanesulfonamide] | 0.9 nM | 2700 nM | 106 nM |
| CC1(C)COc2c(-n3ccc(=O)[nH]c3=O)cc(-c3ccc4cc(NS(C)(=O)=O)ccc4c3)cc21 [Compound I-1, N-{6-[7-(2,4-Dioxo-3,4-dihydro-2H-pyrimidin-1-yl)-3,3-dimethyl-2,3-dihydro-benzofuran-5-yl]-naphthalen-2-yl}-methanesulfonamide] | 0.5 nM | – | – |
| COc1c(-c2ccc3cc(NS(C)(=O)=O)ccc3c2)cc(N2CCC(=O)NC2=O)c2c1C(C)(C)CO2 [Compound I-3, N-{6-[7-(2,4-Dioxo-tetrahydro-pyrimidin-1-yl)-4-methoxy-3,3-dimethyl-2,3-dihydro-benzofuran-5-yl]-naphthalen-2-yl}-methanesulfonamide] | 4.7 nM | – | – |
